Literature values, collected in patent US20030170332A1, “Flavonoid extract” (Enzo Nutraceuticals Limited., priority 2001, published 2003).

Key:
DNA damage = settings: for Protection against DNA damage: in vivo (Duthie et al. 1997; Sierens et al. 2001)
[1] = tested on: carbonyl levels of immunoglobulin

Compound | DNA protection on increasing intake in the diet (DNA damage; in vivo (Beatty et al. 2000)) | Protection against DNA damage (DNA damage) | Effect on protein oxidation of immunoglobulin ([1]; 5 weeks supplementation, 400 mg/day) | Carbonyl levels of immunoglobulin ([1]; 10 and 15 weeks supplementation, subjects with low baseline ascorbate, not in those with normal base line ascorbate)
O=c1c(O)c(-c2ccc(O)c(O)c2)oc2cc(O)cc(O)c12 [quercetin] | did not result in increased DNA protection | did protect against DNA damage |  | 
O=C1O[C@H]([C@@H](O)CO)C(O)=C1O [vitamin C] |  |  | no significant effect | significantly reduced
O=c1c(-c2ccc(O)cc2)coc2cc(O)cc(O)c12 [genistein] |  | did protect against DNA damage |  | 
O=c1c(O)c(-c2cc(O)c(O)c(O)c2)oc2cc(O)cc(O)c12 [myricetin] |  | did protect against DNA damage |  | 
Oc1ccc([C@H]2COc3cc(O)ccc3C2)cc1 [equol] |  | did protect against DNA damage |  | 
